Measured values reported in US20150038435A1, “N-TERMINALLY MODIFIED OLIGOPEPTIDES AND USES THEREOF” (Novo Nordisk A/S, priority 2012, published 2015).
*: point of attachment. Lauroyl = CCCCCCCCCCCC(=O)*

Experiments:
[1] = system: Chymotrypsin; assay: Inhibition of enzymatic degradation of a model GLP-1 (FRET substrate) by chymotrypsin; format: biochemical; settings: compound 0.1 mM, buffer containing 8% DMSO
Outline: (§1)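 MCA/DNP-labelled model GLP-1 FRET substrate (10 μl of 100 μM stock) in Dulbecco's PBS at 37° C with varying acylated peptide; fluorescence (ex 320/em 405 nm) read every minute for ≥30 min. Initial slopes from linear regression, duplicates averaged; EC50 by sigmoidal logistic fit of slope vs concentration.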

[2] = system: Trypsin; assay: Inhibition of enzymatic degradation of a model GLP-1 (FRET substrate) by trypsin; format: biochemical; settings: compound 0.1 mM, buffer containing 8% DMSO
Outline: as §1

[3] = Hydrophobicity: retention time during reverse phase HPLC; format: physicochemical; settings: Acquity CSH C18; pH 7.2 buffer/CH3CN gradient; 40° C.
Text: The retention time (RT) during reverse phase HPLC was taken as a measure of hydrophobicity of an N-terminally modified peptide or oligopeptide of the invention, where the connection is: The longer the RT, the more hydrophobic N-terminally modified peptide or oligopeptide. The following running conditions were applied during HPLC analysis:
Buffer B: 70% (v/v) aq. CH3CN

| Substance | Slope of the initial increase in fluorescence obtained during incubation with 0.001 mg/ml Chymotrypsin [1] | Slope of the initial increase in fluorescence obtained during incubation with 0.001 mg/ml Trypsin [2] | RT (retention time during reverse phase HPLC as a measure of hydrophobicity) [3] [min] |
| --- | --- | --- | --- |
| N-dodecanoyl-Ala-Ala-Thr-Tyr-OH (Lauroyl-AATY-OH; SMILES CCCCCCCCCCCC(=O)N[C@@H](C)C(=O)N[C@@H](C)C(=O)N[C@H](C(=O)N[C@@H](Cc1ccc(O)cc1)C(=O)O)[C@@H](C)O) [Example 71] | 0.91 | 1.76 | 5.61 |
| N-dodecanoyl-Ala-Ala-Val-Tyr-OH (Lauroyl-AAVY-OH; SMILES CCCCCCCCCCCC(=O)N[C@@H](C)C(=O)N[C@@H](C)C(=O)N[C@H](C(=O)N[C@@H](Cc1ccc(O)cc1)C(=O)O)C(C)C) [Example 72] | 1.18 | 1.52 | 6.44 |
| N-dodecanoyl-Ala-Arg-Pro-Tyr-OH (Lauroyl-ARPY-OH; SMILES CCCCCCCCCCCC(=O)N[C@@H](C)C(=O)N[C@@H](CCCNC(=N)N)C(=O)N1CCC[C@H]1C(=O)N[C@@H](Cc1ccc(O)cc1)C(=O)O) [Example 73] | 0.08 | 1.67 | 5.34 |
| N-dodecanoyl-Ala-Asn-Pro-Tyr-OH (Lauroyl-ANPY-OH; SMILES CCCCCCCCCCCC(=O)N[C@@H](C)C(=O)N[C@@H](CC(N)=O)C(=O)N1CCC[C@H]1C(=O)N[C@@H](Cc1ccc(O)cc1)C(=O)O) [Example 74] | 1.66 | 2.27 | 5.27 |
| N-dodecanoyl-Ala-Asp-Pro-Tyr-OH (Lauroyl-ADPY-OH; SMILES CCCCCCCCCCCC(=O)N[C@@H](C)C(=O)N[C@@H](CC(=O)O)C(=O)N1CCC[C@H]1C(=O)N[C@@H](Cc1ccc(O)cc1)C(=O)O) [Example 75] | 1.77 | 1.81 | 4.2 |
| N-dodecanoyl-Ala-Gln-Pro-Tyr-OH (Lauroyl-AQPY-OH; SMILES CCCCCCCCCCCC(=O)N[C@@H](C)C(=O)N[C@@H](CCC(N)=O)C(=O)N1CCC[C@H]1C(=O)N[C@@H](Cc1ccc(O)cc1)C(=O)O) [Example 76] | 0.85 | 2.22 | 5.26 |
| N-dodecanoyl-Ala-Glu-Pro-Tyr-OH (Lauroyl-AEPY-OH; SMILES CCCCCCCCCCCC(=O)N[C@@H](C)C(=O)N[C@@H](CCC(=O)O)C(=O)N1CCC[C@H]1C(=O)N[C@@H](Cc1ccc(O)cc1)C(=O)O) [Example 77] | 1.56 | 1.55 | 4.17 |
| N-dodecanoyl-Ala-Gly-Pro-Tyr-OH (Lauroyl-AGPY-OH; SMILES CCCCCCCCCCCC(=O)N[C@@H](C)C(=O)NCC(=O)N1CCC[C@H]1C(=O)N[C@@H](Cc1ccc(O)cc1)C(=O)O) [Example 78] | 1.03 | 1.87 | 5.59 |
| N-dodecanoyl-Ala-His-Pro-Tyr-OH (Lauroyl-AHPY-OH; SMILES CCCCCCCCCCCC(=O)N[C@@H](C)C(=O)N[C@@H](Cc1c[nH]cn1)C(=O)N1CCC[C@H]1C(=O)N[C@@H](Cc1ccc(O)cc1)C(=O)O) [Example 79] | 0.51 | 1.93 | 5.29 |
